Assay: Anal leakage of oil in rats on high fat diet with diet-admixed orlistat
Assay type: in vivo
Excerpt: Rats maintained on high fat diet were used as models. […] However, the amount of oil leakage could not easily be determined. Due to coprophagia and extensive grooming activity the rats distributed the oil to a large extent over their fur. Moreover, this stressful condition of unsuccessful grooming provoked considerable excitation of the animals. The area of greasy fur increased in proportion to the amount of unabsorbed fat and was reduced by dietary admixture of selected examples of the above defined food additives. However, for reasons of animal care for comparative evaluation of the additives a surrogate parameter was used to assess effects on oil leakage. Following a meal containing orlistat, unabsorbed fat is temporarily stored in the caecum of the rat prior to excretion. The fat is partly present as floating liquid oil, partly associated with unabsorbable solids.

Compound: CCCCCCCCCCC[C@@H](C[C@@H]1OC(=O)[C@H]1CCCCCC)OC(=O)[C@H](CC(C)C)NC=O [orlistat, N-formyl-L-leucine ester with (3S,4S)-3-hexyl-4-[(2S)-2-hydroxy-tridecyl]-2-oxetanone]
- Anal leakage of oil: provoked anal leakage of liquid oil

— US6358522B1, “Pharmaceutical compositions containing lipase inhibitor” (Hoffmann-La Roche Inc., priority 1998, dated 2002)
